From ChEMBL document CHEMBL1156642, “Discovery of betamethasone 17alpha-carbamates as dissociated glucocorticoid receptor modulators in the rat” (Bioorg Med Chem, 2008)
Calls of active or inactive are those of the source. The rule behind the calls is not given here.

Legend:
[1] = target: T1, Progesterone receptor (Homo sapiens, UniProt P06401); test: Inhibition of human progesterone receptor
T1 sequence (P06401 whole entry): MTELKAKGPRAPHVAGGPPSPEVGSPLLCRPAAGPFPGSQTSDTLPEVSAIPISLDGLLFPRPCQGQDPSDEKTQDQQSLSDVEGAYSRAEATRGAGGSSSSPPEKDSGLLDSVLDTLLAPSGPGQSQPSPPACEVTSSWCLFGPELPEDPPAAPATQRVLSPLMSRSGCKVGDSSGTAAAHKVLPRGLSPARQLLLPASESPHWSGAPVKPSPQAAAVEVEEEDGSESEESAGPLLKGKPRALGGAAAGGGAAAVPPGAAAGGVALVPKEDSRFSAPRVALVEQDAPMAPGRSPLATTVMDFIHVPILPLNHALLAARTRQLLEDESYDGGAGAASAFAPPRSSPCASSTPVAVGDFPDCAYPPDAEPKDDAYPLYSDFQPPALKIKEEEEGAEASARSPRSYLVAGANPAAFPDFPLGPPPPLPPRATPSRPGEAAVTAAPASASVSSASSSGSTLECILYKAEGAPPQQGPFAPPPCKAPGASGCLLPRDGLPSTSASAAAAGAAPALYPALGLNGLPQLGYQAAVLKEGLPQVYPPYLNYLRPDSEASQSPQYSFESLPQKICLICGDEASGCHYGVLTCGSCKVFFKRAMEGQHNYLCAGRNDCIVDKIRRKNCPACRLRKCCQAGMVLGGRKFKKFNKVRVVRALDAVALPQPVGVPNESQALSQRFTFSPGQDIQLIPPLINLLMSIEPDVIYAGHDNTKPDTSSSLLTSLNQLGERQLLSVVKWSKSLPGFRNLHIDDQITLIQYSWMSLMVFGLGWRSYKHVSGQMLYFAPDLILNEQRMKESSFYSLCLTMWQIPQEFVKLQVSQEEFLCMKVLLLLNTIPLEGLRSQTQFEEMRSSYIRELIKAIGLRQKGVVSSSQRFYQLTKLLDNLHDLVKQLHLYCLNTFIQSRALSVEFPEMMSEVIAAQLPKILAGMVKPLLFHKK

[2] = species on record: Rattus norvegicus; test: Transactivation activity of glutamine synthase in rat skeletal muscle cells relative to Dexamethasone; type: cell-based
[3] = target: T2, Interstitial collagenase (Homo sapiens) (UniProt P03956); test: Inhibition of glucocorticoid-mediated human MMP1 expression in PMA stimulated A549 cells assessed as MMP1 protein level by ELISA relative to Dexamethasone; type: cell-based; set-up: scale not given: the % may be the effect or the level left
T2 sequence (whole entry): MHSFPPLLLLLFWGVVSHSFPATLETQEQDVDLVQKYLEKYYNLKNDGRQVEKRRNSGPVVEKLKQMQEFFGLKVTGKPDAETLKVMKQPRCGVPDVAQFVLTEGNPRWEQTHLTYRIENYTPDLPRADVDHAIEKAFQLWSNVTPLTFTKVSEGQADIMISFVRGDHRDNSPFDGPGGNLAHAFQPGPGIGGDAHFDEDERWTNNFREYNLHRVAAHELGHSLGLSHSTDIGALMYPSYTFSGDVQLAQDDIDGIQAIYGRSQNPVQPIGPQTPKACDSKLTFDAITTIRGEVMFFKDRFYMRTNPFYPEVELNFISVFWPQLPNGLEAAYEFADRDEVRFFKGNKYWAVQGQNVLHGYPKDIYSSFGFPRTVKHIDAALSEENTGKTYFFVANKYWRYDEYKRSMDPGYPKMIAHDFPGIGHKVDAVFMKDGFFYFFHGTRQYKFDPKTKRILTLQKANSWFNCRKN

[4] = target: T3, Glucocorticoid receptor (Homo sapiens, UniProt P04150)
T3 sequence (P04150 whole entry): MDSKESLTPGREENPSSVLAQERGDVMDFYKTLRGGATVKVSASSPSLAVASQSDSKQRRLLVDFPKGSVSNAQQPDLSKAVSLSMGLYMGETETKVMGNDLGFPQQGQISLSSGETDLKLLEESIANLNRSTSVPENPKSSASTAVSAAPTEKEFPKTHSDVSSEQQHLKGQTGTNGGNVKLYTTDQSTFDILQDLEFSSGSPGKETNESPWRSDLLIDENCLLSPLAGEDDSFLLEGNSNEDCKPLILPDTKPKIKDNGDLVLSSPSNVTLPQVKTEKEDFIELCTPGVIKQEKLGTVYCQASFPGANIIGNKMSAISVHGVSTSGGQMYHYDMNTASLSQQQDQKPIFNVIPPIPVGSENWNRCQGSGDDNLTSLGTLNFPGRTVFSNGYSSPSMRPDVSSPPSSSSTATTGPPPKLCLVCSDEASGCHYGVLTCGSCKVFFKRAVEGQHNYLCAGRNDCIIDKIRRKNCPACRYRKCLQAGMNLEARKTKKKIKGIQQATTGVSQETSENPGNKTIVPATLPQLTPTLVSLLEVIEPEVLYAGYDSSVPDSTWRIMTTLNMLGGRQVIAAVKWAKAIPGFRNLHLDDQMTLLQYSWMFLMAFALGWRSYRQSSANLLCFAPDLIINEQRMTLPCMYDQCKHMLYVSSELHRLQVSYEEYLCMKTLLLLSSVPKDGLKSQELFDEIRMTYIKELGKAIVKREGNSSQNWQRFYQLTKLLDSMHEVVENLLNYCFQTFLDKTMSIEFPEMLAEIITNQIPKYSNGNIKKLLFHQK
Description: Inhibition of human glucocorticoid receptor

[5] = Transactivation activity of glutamine synthase in rat skeletal muscle cells; type: cell-based
[6] = test system: Rattus norvegicus; test: Effect on adrenal weight in Lewis rat with implanted cotton pellets at 10 mg/kg, po bid; type: functional
[7] = test system: Rattus norvegicus; test: Inhibition of granuloma formation in cotton pellet implanted Lewis rat at 10 mg/kg, po bid; type: functional
[8] = test system: Rattus norvegicus; test: Inhibition of granuloma formation in cotton pellet implanted Lewis rat at 19 mg/kg, po bid; type: functional
[9] = test system: Rattus norvegicus; test: Effect on spleen weight in Lewis rat with implanted cotton pellets at 5.0 mg/kg, po bid; type: functional
[10] = test system: Rattus norvegicus; test: Effect on body weight change in Lewis rat with implanted cotton pellets at 10 mg/kg, po bid for 4 days; type: functional
[11] = test system: Rattus norvegicus; test: Effect on thymus weight in Lewis rat with implanted cotton pellets at 19 mg/kg, po bid; type: functional
[12] = test system: Rattus norvegicus; test: Effect on adrenal weight in Lewis rat with implanted cotton pellets at 19 mg/kg, po bid; type: functional
[13] = test system: Rattus norvegicus; test: Effect on body weight change in Lewis rat with implanted cotton pellets at 10 mg/kg, po bid for 7 days; type: functional
[14] = test system: Rattus norvegicus; test: Inhibition of granuloma formation in cotton pellet implanted Lewis rat at 5.0 mg/kg, po bid; type: functional
[15] = test system: Rattus norvegicus; test: Effect on plasma glucose level in Lewis rat with implanted cotton pellets at 10 mg/kg, po by oral glucose tolerance test; type: functional, organism-based; set-up: dose 10 mg/kg
[16] = test system: Rattus norvegicus; test: Effect on thymus weight in Lewis rat with implanted cotton pellets at 5.0 mg/kg, po bid; type: functional
[17] = test system: Rattus norvegicus; test: Effect on thymus weight in Lewis rat with implanted cotton pellets at 10 mg/kg, po bid; type: functional
[18] = test system: Rattus norvegicus; test: Effect on body weight change in Lewis rat with implanted cotton pellets at 5.0 mg/kg, po bid for 7 days; type: functional
[19] = test system: Rattus norvegicus; test: Effect on spleen weight in Lewis rat with implanted cotton pellets at 10 mg/kg, po bid; type: functional
[20] = test system: Rattus norvegicus; test: Effect on body weight change in Lewis rat with implanted cotton pellets at 19 mg/kg, po bid for 7 days; type: functional
[21] = test system: Rattus norvegicus; test: Effect on plasma glucose level in Lewis rat with implanted cotton pellets at 19 mg/kg, po by oral glucose tolerance test; type: functional, organism-based; set-up: dose 19 mg/kg
[22] = test system: Rattus norvegicus; test: Effect on body weight change in Lewis rat with implanted cotton pellets at 19 mg/kg, po bid for 4 days; type: functional
[23] = test system: Rattus norvegicus; test: Effect on spleen weight in Lewis rat with implanted cotton pellets at 19 mg/kg, po bid; type: functional
[24] = test system: Rattus norvegicus; test: Effect on body weight change in Lewis rat with implanted cotton pellets at 5.0 mg/kg, po bid for 4 days; type: functional
[25] = test system: Rattus norvegicus; test: Effect on adrenal weight in Lewis rat with implanted cotton pellets at 5.0 mg/kg, po bid; type: functional

Compound | IC50 [1] [nM] | Activity [2] [%] | Activity [3] [%] | IC50 [4] [nM] | EC50 [5] [nM] | other results
C=CCNC(=O)O[C@]1(C(=O)CO)[C@@H](C)C[C@H]2[C@@H]3CCC4=CC(=O)C=C[C@]4(C)[C@@]3(F)[C@@H](O)C[C@@]21C | > 1000 | 16 | 106 | 17.4 |  | 
C[C@H]1C[C@H]2[C@@H]3CCC4=CC(=O)C=C[C@]4(C)[C@@]3(F)[C@@H](O)C[C@]2(C)[C@@]1(OC(=O)NC1CCCC1)C(=O)CO |  | 23 | 76.1 | 3.8 |  | 
C[C@H]1C[C@H]2[C@@H]3CCC4=CC(=O)C=C[C@]4(C)[C@@]3(F)[C@@H](O)C[C@]2(C)[C@@]1(OC(=O)NC1CCCCC1)C(=O)CO | 120 | 24.7 | 82 |  |  | 
C[C@H]1C[C@H]2[C@@H]3CCC4=CC(=O)C=C[C@]4(C)[C@@]3(F)[C@@H](O)C[C@]2(C)[C@@]1(OC(=O)NC(C)(C)C)C(=O)CO |  | 64 | 94 | 2.4 | 0.37 | 
CCCCCNC(=O)O[C@]1(C(=O)CO)[C@@H](C)C[C@H]2[C@@H]3CCC4=CC(=O)C=C[C@]4(C)[C@@]3(F)[C@@H](O)C[C@@]21C |  | 60.3 | 97.5 | 2.1 | 0.4 | 
CCCNC(=O)O[C@]1(C(=O)CO)[C@@H](C)C[C@H]2[C@@H]3CCC4=CC(=O)C=C[C@]4(C)[C@@]3(F)[C@@H](O)C[C@@]21C | 394 | 34.7 | 103 | 3.6 |  | Activity [6]: 34.6 mg; inhibition in vivo at 10 mg/kg [7]: 40%; inhibition in vivo at 19 mg/kg [8]: 51%; Activity [9]: 296.1 mg; Activity [10]: 3.9 g; Activity [11]: 82.9 mg; Activity [12]: 25.6 mg; Activity [13]: 7.1 g; inhibition in vivo at 5 mg/kg [14]: 32.7%; Activity [15]: Active; Activity [16]: 105.5 mg; Activity [17]: 91.4 mg; Activity [18]: 5 g; Activity [19]: 274.3 mg; Activity [20]: 6.6 g; Activity [21]: Active; Activity [22]: 3.9 g; Activity [23]: 258 mg; Activity [24]: 1.1 g; Activity [25]: 34.7 mg
CCC(C)(C)NC(=O)O[C@]1(C(=O)CO)[C@@H](C)C[C@H]2[C@@H]3CCC4=CC(=O)C=C[C@]4(C)[C@@]3(F)[C@@H](O)C[C@@]21C |  | 35 | 65.9 | 55.1 |  | 
CC(C)NC(=O)O[C@]1(C(=O)CO)[C@@H](C)C[C@H]2[C@@H]3CCC4=CC(=O)C=C[C@]4(C)[C@@]3(F)[C@@H](O)C[C@@]21C |  | 26 | 105 | 21.5 |  | 
C[C@H]1C[C@H]2[C@@H]3CCC4=CC(=O)C=C[C@]4(C)[C@@]3(F)[C@@H](O)C[C@]2(C)[C@@]1(OC(=O)NCCC(C)(C)C)C(=O)CO |  | 61.8 | 56.3 | 12.3 | 576 | 
